Data taken from PMC11345841, “Exploring 2-Sulfonylpyrimidine Warheads as Acrylamide Surrogates for Targeted Covalent Inhibition: A BTK Story” (Journal of Medicinal Chemistry, 2024).
Like-named read-outs stand apart in the source and are kept apart here.

Legend:
Assay in all cases: KINOMEscan ScanTK
Assay type in all cases: binding
FYN = biological target: T1, FYN (Homo sapiens, UniProt P06241)
T1 construct: purchased Eurofins DiscoverX KINOMEscan (scanTK)

EPHB1 = biological target: T2, EPHB1 (Homo sapiens, UniProt P54762); conditions: EPHB1
T2 construct: purchased Eurofins DiscoverX KINOMEscan (scanTK)
T2 sequence (P54762 18-984): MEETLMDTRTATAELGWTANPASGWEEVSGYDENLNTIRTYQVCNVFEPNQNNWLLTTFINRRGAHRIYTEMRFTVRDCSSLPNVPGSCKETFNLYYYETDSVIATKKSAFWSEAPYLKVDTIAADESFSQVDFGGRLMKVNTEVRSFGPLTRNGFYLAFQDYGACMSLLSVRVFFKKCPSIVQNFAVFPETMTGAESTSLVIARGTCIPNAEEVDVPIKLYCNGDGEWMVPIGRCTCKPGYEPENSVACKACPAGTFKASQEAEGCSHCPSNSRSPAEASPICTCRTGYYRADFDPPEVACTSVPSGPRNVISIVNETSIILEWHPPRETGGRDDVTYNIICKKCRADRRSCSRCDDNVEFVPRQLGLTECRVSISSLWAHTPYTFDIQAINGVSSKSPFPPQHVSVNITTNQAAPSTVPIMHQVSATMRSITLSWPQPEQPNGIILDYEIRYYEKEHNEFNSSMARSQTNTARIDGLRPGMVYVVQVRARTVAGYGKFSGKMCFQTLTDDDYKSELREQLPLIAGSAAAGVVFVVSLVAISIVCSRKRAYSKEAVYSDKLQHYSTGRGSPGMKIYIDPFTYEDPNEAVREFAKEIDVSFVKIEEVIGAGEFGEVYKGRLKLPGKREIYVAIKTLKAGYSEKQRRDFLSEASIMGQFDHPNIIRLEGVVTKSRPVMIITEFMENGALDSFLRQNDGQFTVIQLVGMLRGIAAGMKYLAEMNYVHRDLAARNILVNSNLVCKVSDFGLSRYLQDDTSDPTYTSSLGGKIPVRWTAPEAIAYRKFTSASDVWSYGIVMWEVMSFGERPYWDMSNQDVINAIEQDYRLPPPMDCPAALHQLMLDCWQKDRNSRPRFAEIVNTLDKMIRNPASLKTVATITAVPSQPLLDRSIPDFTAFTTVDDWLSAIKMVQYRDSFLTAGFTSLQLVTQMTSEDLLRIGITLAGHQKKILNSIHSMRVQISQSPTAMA

[1] = biological target: T3, EGFR(L747-E749del, A750P) (Homo sapiens, UniProt P00533, A750P/DEL747-749)
T3 construct: purchased Eurofins DiscoverX KINOMEscan (scanTK)

BRK = biological target: T4, BRK (Homo sapiens, UniProt Q13882)
T4 construct: purchased Eurofins DiscoverX KINOMEscan (scanTK)

CSF1R = biological target: T5, CSF1R (Homo sapiens, UniProt P07333)
T5 construct: purchased Eurofins DiscoverX KINOMEscan (scanTK)

EGFR(G719S) = biological target: T6, EGFR(G719S) (Homo sapiens, UniProt P00533, G719S)
T6 construct: purchased Eurofins DiscoverX KINOMEscan (scanTK)

LTK = biological target: T7, LTK (Homo sapiens, UniProt P29376)
T7 construct: purchased Eurofins DiscoverX KINOMEscan (scanTK)

[2] = biological target: T8, JAK2(JH1domain-catalytic) (Homo sapiens, UniProt O60674)
T8 construct: JAK2(JH1domain-catalytic); purchased Eurofins DiscoverX KINOMEscan (scanTK)

PDGFRB = biological target: T9, PDGFRB (Homo sapiens, UniProt P09619)
T9 construct: purchased Eurofins DiscoverX KINOMEscan (scanTK)

TRKA = biological target: T10, TRKA (Homo sapiens, UniProt P04629); conditions: TRKA
T10 construct: purchased Eurofins DiscoverX KINOMEscan (scanTK)

[3] = biological target: T11, ABL1(E255K)-phosphorylated (Homo sapiens, UniProt P00519, E255K)
T11 construct: purchased Eurofins DiscoverX KINOMEscan (scanTK)

FGFR2 = biological target: T12, FGFR2 (Homo sapiens, UniProt P21802)
T12 construct: purchased Eurofins DiscoverX KINOMEscan (scanTK)

KIT(A829P) = biological target: T13, KIT(A829P) (Homo sapiens, UniProt P10721, A829P)
T13 construct: purchased Eurofins DiscoverX KINOMEscan (scanTK)

ABL1-phosphorylated = biological target: T14, ABL1-phosphorylated (Homo sapiens, UniProt P00519)
T14 construct: purchased Eurofins DiscoverX KINOMEscan (scanTK)

TIE2 = biological target: T15, TIE2 (Homo sapiens, UniProt Q02763)
T15 construct: purchased Eurofins DiscoverX KINOMEscan (scanTK)

ALK(C1156Y) = biological target: T16, ALK(C1156Y) (Homo sapiens, UniProt Q9UM73, C1156Y)
T16 construct: purchased Eurofins DiscoverX KINOMEscan (scanTK)

T11 sequence (P00519 whole entry E255K): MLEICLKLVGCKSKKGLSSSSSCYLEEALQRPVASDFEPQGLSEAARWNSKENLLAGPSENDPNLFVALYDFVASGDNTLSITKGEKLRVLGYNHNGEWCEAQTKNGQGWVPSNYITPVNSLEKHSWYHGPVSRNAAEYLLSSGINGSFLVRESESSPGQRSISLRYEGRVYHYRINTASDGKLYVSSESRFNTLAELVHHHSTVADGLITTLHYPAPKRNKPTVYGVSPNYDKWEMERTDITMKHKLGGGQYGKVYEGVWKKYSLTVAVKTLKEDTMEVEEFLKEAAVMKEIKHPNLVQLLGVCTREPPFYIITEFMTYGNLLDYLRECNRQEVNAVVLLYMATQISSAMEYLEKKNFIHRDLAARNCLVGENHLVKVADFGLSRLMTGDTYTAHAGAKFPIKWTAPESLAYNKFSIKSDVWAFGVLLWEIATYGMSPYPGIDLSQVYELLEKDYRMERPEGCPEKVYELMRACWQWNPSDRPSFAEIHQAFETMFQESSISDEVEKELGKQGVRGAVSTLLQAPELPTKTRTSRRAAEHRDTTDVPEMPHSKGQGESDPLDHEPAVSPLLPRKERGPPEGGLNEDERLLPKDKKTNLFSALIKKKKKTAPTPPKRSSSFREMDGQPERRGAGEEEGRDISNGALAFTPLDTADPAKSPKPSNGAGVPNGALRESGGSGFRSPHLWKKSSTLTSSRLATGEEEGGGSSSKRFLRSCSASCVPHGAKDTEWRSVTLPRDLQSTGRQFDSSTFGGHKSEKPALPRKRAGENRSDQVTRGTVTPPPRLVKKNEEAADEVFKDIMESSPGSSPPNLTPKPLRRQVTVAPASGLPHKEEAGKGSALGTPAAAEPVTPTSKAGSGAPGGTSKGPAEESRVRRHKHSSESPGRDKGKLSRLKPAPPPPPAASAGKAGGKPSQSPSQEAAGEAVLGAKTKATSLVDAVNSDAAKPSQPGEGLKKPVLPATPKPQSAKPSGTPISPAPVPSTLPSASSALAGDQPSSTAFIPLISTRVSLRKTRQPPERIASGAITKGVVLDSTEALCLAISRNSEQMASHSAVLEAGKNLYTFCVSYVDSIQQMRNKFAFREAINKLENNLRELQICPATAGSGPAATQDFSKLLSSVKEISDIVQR
T6 sequence (P00533 25-1210 G719S): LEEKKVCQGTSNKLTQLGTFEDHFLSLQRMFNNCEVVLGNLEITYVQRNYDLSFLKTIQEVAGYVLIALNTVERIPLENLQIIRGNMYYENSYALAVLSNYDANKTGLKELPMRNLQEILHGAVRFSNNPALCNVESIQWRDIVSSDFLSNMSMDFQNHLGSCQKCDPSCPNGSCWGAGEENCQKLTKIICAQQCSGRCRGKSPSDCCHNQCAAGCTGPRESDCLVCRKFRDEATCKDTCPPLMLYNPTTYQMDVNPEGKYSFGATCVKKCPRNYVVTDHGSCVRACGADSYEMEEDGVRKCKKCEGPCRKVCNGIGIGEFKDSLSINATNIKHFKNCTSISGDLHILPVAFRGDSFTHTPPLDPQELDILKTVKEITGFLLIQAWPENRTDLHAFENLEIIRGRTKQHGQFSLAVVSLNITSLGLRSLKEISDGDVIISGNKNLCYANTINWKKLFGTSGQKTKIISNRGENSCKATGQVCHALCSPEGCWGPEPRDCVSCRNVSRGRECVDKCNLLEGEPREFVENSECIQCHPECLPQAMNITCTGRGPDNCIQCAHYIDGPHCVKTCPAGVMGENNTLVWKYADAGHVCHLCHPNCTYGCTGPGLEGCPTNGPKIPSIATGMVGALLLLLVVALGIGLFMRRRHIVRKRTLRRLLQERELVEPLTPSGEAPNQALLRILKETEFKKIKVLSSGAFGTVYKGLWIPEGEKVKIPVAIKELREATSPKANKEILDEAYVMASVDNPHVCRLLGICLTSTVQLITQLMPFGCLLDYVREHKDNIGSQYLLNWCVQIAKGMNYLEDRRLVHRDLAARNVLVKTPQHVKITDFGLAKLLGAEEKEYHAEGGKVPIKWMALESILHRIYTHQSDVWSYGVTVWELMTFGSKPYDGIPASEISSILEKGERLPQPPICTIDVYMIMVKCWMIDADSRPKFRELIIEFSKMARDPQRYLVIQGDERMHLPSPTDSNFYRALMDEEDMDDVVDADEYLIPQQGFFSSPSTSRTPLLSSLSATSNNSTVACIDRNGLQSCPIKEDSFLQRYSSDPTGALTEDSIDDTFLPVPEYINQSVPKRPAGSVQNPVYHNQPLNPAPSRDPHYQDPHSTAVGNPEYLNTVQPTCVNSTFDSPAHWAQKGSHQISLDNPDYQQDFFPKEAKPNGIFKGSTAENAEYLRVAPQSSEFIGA
T14 sequence (P00519 whole entry): as the sequence (P00519 whole entry E255K) above, with K255E counted along it
T5 sequence (P07333 20-972): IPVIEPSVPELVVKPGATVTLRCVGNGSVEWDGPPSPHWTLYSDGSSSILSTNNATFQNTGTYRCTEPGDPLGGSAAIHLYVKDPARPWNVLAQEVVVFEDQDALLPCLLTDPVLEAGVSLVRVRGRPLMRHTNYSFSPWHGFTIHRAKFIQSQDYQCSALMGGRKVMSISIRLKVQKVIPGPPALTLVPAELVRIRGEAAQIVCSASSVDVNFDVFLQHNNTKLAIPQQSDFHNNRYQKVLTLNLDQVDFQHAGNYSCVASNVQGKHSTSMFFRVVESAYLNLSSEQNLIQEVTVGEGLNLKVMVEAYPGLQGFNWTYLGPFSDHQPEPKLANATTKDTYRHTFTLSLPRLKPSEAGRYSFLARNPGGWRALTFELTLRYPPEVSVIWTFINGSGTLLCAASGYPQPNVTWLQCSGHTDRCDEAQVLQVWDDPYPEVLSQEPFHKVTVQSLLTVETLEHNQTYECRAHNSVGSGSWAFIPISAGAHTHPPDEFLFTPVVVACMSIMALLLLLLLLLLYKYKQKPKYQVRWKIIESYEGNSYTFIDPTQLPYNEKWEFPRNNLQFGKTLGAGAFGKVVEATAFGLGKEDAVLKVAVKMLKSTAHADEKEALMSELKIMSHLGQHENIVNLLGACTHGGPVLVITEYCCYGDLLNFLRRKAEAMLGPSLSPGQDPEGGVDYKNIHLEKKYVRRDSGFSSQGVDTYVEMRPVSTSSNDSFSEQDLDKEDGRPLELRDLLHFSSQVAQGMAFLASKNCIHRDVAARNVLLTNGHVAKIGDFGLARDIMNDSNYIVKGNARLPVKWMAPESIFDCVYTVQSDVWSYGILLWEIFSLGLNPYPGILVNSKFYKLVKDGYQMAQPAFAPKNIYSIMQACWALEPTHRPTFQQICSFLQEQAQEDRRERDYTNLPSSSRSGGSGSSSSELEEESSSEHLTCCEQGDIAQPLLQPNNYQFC
T8 sequence (O60674 849-1132 limits assumed): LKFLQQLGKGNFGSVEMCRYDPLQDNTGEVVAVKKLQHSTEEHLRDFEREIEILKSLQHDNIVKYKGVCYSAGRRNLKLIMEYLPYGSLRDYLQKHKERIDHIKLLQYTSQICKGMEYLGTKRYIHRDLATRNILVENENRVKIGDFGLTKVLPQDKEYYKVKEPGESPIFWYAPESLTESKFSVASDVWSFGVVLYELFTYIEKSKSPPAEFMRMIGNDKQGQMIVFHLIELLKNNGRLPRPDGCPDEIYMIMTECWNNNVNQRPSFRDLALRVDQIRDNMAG
T12 sequence (P21802 22-821): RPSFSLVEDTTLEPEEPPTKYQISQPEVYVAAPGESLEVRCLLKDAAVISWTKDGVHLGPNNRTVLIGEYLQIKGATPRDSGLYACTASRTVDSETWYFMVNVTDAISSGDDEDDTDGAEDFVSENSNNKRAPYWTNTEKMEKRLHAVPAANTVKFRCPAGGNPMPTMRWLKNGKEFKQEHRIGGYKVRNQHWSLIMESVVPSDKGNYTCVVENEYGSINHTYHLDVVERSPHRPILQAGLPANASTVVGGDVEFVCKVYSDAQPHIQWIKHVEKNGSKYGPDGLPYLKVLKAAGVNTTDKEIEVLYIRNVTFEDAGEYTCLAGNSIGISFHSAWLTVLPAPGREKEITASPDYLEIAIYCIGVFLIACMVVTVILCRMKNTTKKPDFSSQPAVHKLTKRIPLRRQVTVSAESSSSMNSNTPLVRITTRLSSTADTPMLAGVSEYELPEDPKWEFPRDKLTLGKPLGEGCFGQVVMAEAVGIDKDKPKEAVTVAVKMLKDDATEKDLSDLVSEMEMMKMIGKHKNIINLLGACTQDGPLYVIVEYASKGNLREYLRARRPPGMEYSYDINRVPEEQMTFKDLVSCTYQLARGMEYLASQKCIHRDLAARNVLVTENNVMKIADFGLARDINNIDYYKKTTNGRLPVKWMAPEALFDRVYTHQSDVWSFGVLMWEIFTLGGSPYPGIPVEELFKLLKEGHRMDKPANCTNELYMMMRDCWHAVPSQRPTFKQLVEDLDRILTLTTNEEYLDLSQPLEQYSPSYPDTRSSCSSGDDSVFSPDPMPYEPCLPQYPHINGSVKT
T3 sequence (P00533 with tags, fused parts or gaps DEL747-749/A750P limits assumed): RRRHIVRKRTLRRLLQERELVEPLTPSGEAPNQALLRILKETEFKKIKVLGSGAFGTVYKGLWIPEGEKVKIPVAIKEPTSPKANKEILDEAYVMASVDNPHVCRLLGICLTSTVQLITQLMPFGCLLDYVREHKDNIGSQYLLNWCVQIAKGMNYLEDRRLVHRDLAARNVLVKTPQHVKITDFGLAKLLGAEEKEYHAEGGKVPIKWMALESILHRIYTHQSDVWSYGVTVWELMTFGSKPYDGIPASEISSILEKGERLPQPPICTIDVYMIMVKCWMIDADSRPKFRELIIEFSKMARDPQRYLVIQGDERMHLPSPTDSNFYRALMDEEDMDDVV

CNC(=O)c1cnc(S(C)(=O)=O)nc1N1CCCC(n2nc(-c3ccc(Oc4ccccc4)cc3)c3c(N)ncnc32)C1 (centres unmarked) [Compound 8d, 4-(3-(4-Amino-3-(4-phenoxyphenyl)-1H-pyrazolo[3,4-d]pyrimidin-1-yl)piperidin-1-yl)-N-methyl-2-(methylsulfonyl)pyrimidine-5-carboxamide]
difference in % of control versus compound Ib at 1 µM (FYN; @1000nM): 5.4%
remaining binding at 1 µM (FYN; @1000nM, read-out: %Control): 15%
remaining binding at 1 µM (FYN; read-out: %Control @1000nM): 15%
difference in % of control versus compound Ib at 1 µM (EPHB1; @1000nM): 1%
remaining binding at 1 µM (EPHB1; @1000nM, read-out: %Control): 91%
remaining binding at 1 µM (EPHB1; read-out: %Control @1000nM): 91%
difference in %Control versus compound Ib at 1 µM ([1]; @1000nM): 48.9%
remaining binding at 1 µM ([1]; @1000nM, read-out: %Control): 52%
remaining binding at 1 µM ([1]; read-out: %Control @1000nM): 52%
difference in %Control relative to compound Ib at 1 µM (BRK; @1000nM): 13.7%
remaining binding at 1 µM (BRK; @1000nM, read-out: %Control): 15%
remaining binding at 1 µM (BRK; read-out: %Control @1000nM): 15%
difference in %Control versus compound Ib at 1 µM (CSF1R; @1000nM): 19%
remaining binding at 1 µM (CSF1R; @1000nM, read-out: %Control): 99%
remaining binding at 1 µM (CSF1R; read-out: %Control @1000nM): 99%
difference in %Control from compound Ib at 1 µM (EGFR(G719S); @1000nM): 77.4%
remaining binding at 1 µM (EGFR(G719S); @1000nM, read-out: %Control): 78%
remaining binding at 1 µM (EGFR(G719S); read-out: %Control @1000nM): 78%
remaining binding at 1 µM (LTK; @1000nM, read-out: %Control): 100%
remaining binding at 1 µM (LTK; read-out: %Control @1000nM): 100%
difference in %Control vs compound Ib at 1 µM ([2]; @1000nM): -14%
remaining binding at 1 µM ([2]; @1000nM, read-out: %Control): 86%
remaining binding at 1 µM ([2]; read-out: %Control @1000nM): 86%
remaining binding at 1 µM (PDGFRB; @1000nM, read-out: %Control): 77%
remaining binding at 1 µM (PDGFRB; read-out: %Control @1000nM): 77%
difference in % of control versus compound Ib at 1 µM (TRKA; @1000nM): -2%
remaining binding at 1 µM (TRKA; @1000nM, read-out: %Control): 83%
remaining binding at 1 µM (TRKA; read-out: %Control @1000nM): 83%
difference in %Control from reference Ib at 1 µM ([3]; @1000nM, read-out: % difference (compound - Ib %Control)): 26%
remaining binding at 1 µM ([3]; @1000nM, read-out: %Control): 90%
remaining binding at 1 µM ([3]; read-out: %Control @1000nM): 90%
difference in %Control vs compound Ib at 1 µM (FGFR2; @1000nM): 35%
remaining binding at 1 µM (FGFR2; @1000nM, read-out: %Control): 74%
remaining binding at 1 µM (FGFR2; read-out: %Control @1000nM): 74%
remaining binding at 1 µM (KIT(A829P); @1000nM, read-out: %Control): 63%
remaining binding at 1 µM (KIT(A829P); read-out: %Control @1000nM): 63%
difference in %Control from compound Ib at 1 µM (ABL1-phosphorylated; @1000nM): -5%
remaining binding at 1 µM (ABL1-phosphorylated; @1000nM, read-out: %Control): 55%
remaining binding at 1 µM (ABL1-phosphorylated; read-out: %Control @1000nM): 55%
remaining binding at 1 µM (TIE2; @1000nM, read-out: %Control): 74%
remaining binding at 1 µM (TIE2; read-out: %Control @1000nM): 74%
difference in %Control versus compound Ib at 1 µM (ALK(C1156Y); @1000nM): -10%
remaining binding at 1 µM (ALK(C1156Y); @1000nM, read-out: %Control): 88%
remaining binding at 1 µM (ALK(C1156Y); read-out: %Control @1000nM): 88%
